Experimental data taken from patent publication US11814364B2, “Pyridine N-oxide derivatives useful as factor XIa inhibitors” (Janssen Pharmaceutica NV, priority 2021, dated 2023).

Biological target: human plasma kallikrein (Homo sapiens, UniProt P03952)
Assay: Kallikrein inhibition FLINT assay with quenched AMC peptide substrate Z-Gly-Pro-Arg-AMC (end point EP or kinetic KIN reads)
Format: biochemical
Details: kinetic reads at 5 min intervals over 30 min; read-out: Kallikrein (KIN) IC50
Method in brief: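 Enzyme and compound were preincubated 30 min before adding 50 μM AMC substrate in pH 7.5 Tris/NaCl/CaCl2/BSA/CHAPS buffer. AMC release was read at 30 min endpoint or every 5 min.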

Chain of human plasma kallikrein (P03952 391-638 limits assumed): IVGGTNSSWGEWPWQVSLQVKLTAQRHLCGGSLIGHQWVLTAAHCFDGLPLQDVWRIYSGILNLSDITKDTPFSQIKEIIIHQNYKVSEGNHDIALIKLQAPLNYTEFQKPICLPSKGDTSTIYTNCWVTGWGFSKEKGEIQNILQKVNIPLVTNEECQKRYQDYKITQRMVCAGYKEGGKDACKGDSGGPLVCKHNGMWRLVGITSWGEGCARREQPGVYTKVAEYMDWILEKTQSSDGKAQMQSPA
Chain of human plasma kallikrein (P03952 20-390 partner limits assumed): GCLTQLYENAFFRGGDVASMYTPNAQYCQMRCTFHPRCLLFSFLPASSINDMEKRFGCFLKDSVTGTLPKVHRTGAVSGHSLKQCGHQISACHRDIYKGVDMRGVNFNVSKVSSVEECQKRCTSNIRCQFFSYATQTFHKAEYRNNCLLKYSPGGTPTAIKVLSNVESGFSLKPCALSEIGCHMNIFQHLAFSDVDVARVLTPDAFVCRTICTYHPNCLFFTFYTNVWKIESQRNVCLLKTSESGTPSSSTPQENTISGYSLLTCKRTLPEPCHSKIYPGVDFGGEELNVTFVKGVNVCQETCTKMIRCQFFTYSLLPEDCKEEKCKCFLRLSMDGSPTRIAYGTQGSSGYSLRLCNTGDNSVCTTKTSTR

| SMILES | IC50 |
| --- | --- |
| [2H]C([2H])([2H])n1ncc(NC(=O)C2CC2)c1-c1cnn(C(CCOC(F)F)c2ccc(-c3c(-n4cc(Cl)nn4)ccc(Cl)c3F)c[n+]2[O-])c1 (single isomer, unassigned) [Example P810] | ~383 nM |
| CN(C)C(=O)N(C)CC(c1ccc(-c2c(-n3cnnn3)ccc(Cl)c2F)c[n+]1[O-])n1cc(-c2ccnc(C(F)(F)F)c2)cn1 (stereo not shown) [Example P437] | 113 nM |
| COC(=O)Nc1ccc(-c2cnn(C(CC3CCCCO3)c3ccc(-c4c(-n5cnnn5)ccc(Cl)c4F)c[n+]3[O-])c2)cc1 (stereo not shown) [Example P220] | 13.9 nM |
| [O-][n+]1cc(-c2c(-n3cnnn3)ccc(Cl)c2F)ccc1C(Cn1cc(F)c(COC(F)F)n1)n1cc(-c2ccnc(C(F)(F)F)c2)cn1 (single isomer, unassigned) [Example P570] | 7.2 nM |
| [O-][n+]1cc(-c2c(-n3cnnn3)ccc(Cl)c2F)ccc1[C@@H](CC1CC1)n1cc(-c2c(F)cnn2C(F)F)cn1 [Example P628] | 165 nM |
| [O-][n+]1cc(-c2c(-n3cc(Cl)nn3)ccc(Cl)c2F)ccc1C(Cn1cccn1)n1cc(-c2cn(C(F)F)nn2)cn1 (single isomer, unassigned) [Example P664] | 380 nM |
| CCn1ncc(-c2cnn(C(CC3CC3)c3cc(OC)c(-c4c(-n5cnnn5)ccc(Cl)c4F)c[n+]3[O-])c2)cc1=O (stereo not shown) [Example P170] | 46.8 nM |
| [O-][n+]1cc(-c2c(-n3cnnn3)ccc(Cl)c2F)ccc1C(CCOC(F)F)n1cc(-c2ccnc(C(F)(F)F)n2)cn1 (single isomer, unassigned) [Example P401] | 18.6 nM |
| CN1CCN(CC(c2ccc(-c3c(-n4cnnn4)ccc(Cl)c3F)c[n+]2[O-])n2cc(-c3ccnc(C(F)(F)F)c3)cn2)C1=O (stereo not shown) [Example P432] | 2.8 nM |
| [2H]C([2H])([2H])n1nccc1-c1cnn([C@@H](CCOC(F)F)c2ccc(-c3c(-n4cnnn4)ccc(Cl)c3F)c[n+]2[O-])c1 [Example P557] | 210 nM |
| Cn1cc(CC(c2ccc(-c3c(-n4cnnn4)ccc(Cl)c3F)c[n+]2[O-])n2cc(-c3ccnc(C(F)(F)F)c3)cn2)cn1 (stereo not shown) [Example P452] | 10.8 nM |
| Cc1nc(N)ccc1-c1cnn(C(CCOC(F)F)c2ccc(-c3c(-n4cnnn4)ccc(Cl)c3F)c[n+]2[O-])c1 (stereo not shown) [Example P342] | 4.3 nM |
| N#Cc1cn(-c2ccc(Cl)c(F)c2-c2ccc([C@@H](CCOC(F)F)n3cc(-c4ncnn4C(F)F)cn3)[n+]([O-])c2)nn1 [Example P790] | 35.8 nM |
| [2H]C([2H])([2H])n1nccc1-c1cnn([C@H](CCOC(F)F)c2ccc(-c3c(-n4cnnn4)ccc(Cl)c3F)c[n+]2[O-])c1 [Example P556] | 2.4 nM |

Further compounds by falling IC50, results first:

| IC50 | SMILES |
| --- | --- |
| 471 nM | [O-][n+]1cc(-c2c(-n3cnnn3)ccc(Cl)c2F)ccc1C(CC1CC1)n1cc(-c2scnc2C(F)(F)F)cn1 (stereo not shown) [Example P540] |
| 454 nM | Cn1cc(-c2cnn([C@H](CCOC(F)F)c3ccc(-c4c(-n5cc(C(F)(F)F)nn5)ccc(Cl)c4F)c[n+]3[O-])c2)nn1 [Example P760] |
| 80.4 nM | [O-][n+]1cc(-c2c(C(F)F)ccc(Cl)c2F)ccc1C(Cn1cc(F)cn1)n1cc(-c2ccnc(C(F)(F)F)c2)cn1 (single isomer, unassigned) [Example Q23] |
| 59.3 nM | CCC(c1ccc(-c2c(-n3cnnn3)ccc(Cl)c2F)c[n+]1[O-])n1cc(-c2ccncc2)cn1 (single isomer, unassigned) [Example P212] |
| 22.8 nM | [O-][n+]1cc(-c2cc(Cl)ccc2-n2cnnn2)ccc1C(Cc1ccc(Cl)cc1)n1cc(-c2ccnc(F)c2)cn1 (stereo not shown) [Example P210] |
| 4.7 nM | NC(=O)c1ccnn1CC(c1ccc(-c2c(C(F)F)ccc(Cl)c2F)c[n+]1[O-])n1cc(-c2ccnc(C(F)(F)F)c2)cn1 (single isomer, unassigned) [Example Q27] |
| 2.9 nM | NC(=O)c1ccc(-c2cnn(C(Cc3ccn(C(F)F)n3)c3ccc(-c4c(C(F)F)ccc(Cl)c4F)c[n+]3[O-])c2)cc1F (single isomer, unassigned) [Example Q67] |
| 2.5 nM | CCOc1cc(C(CC2CC2)n2cc(-c3ccncc3)cn2)[n+]([O-])cc1-c1c(-n2cnnn2)ccc(Cl)c1F (stereo not shown) [Example P251] |
